Source: PubChem BioAssay AID844 (SRMLSC, 2007)
The source made the active and inactive calls. The rule behind the calls is not given here.

Tested on: MRP1 cells, doxorubicin viability shift, 10 uM compound
Test: viability protection against doxorubicin, MRP-1 line – cell-based, doxorubicin EC50 shift, dose response (AID 844)
Conditions: for EC50: measured here: doxorubicin EC50 with compound

Row | Structure (SMILES) | fold increase in Dox EC50 | EC50
1 | N#Cc1c(N)n(CCOC(=O)c2cccc(Br)c2)c2nc3ccccc3nc12 | 0.93 (inactive) | 5.04 µM
2 | N#Cc1c(-c2cccs2)nc(SCC(=O)c2cccs2)[nH]c1=O | 1.12 (inactive) | 6.05 µM
3 | COc1ccccc1-c1nc(C#N)c(N2CCc3ccccc3C2)o1 | 0.37 (inactive) | 1.99 µM
4 | Cc1nn(Cc2ccc(Cl)cc2Cl)c(C)c1NC(=O)c1ccc(COc2cc(Cl)ccc2Cl)o1 | 0.82 (inactive) | 4.4 µM
5 | C/C(=N\NC(=O)c1cccc(S(=O)(=O)Nc2cccc(Cl)c2)c1)c1cccs1 | 0.65 (inactive) | 3.49 µM
6 | O=C1[C@@H]2[C@H](Cc3ccc(O)cc3)N[C@]3(C(=O)Nc4ccccc43)[C@@H]2C(=O)N1c1ccc(F)cc1 | 1.46 (inactive) | 7.88 µM
7 | O=C1CC(N2CCC(n3c(=O)[nH]c4ccccc43)CC2)C(=O)N1c1ccc(F)cc1 (stereo unspecified) | 1.41 (inactive) | 7.59 µM
8 | Cc1cc(C(=O)Nc2nnc(C(F)(F)F)s2)no1 | 1.51 | 8.14 µM
9 | COc1ccc(N2CCN(c3nc(Cl)nc(N4CCOCC4)n3)CC2)cc1 | 0.69 (inactive) | 3.72 µM
10 | C/C(=N/NC(=O)CSc1ccccn1)c1ccc([N+](=O)[O-])cc1 | 0.77 (inactive) | 4.18 µM
11 | O=C(CC(Nc1ccc(F)cc1)C(=O)OCC(=O)c1cccs1)c1ccccc1 (stereo unspecified) | 0.69 (inactive) | 3.73 µM
12 | Cc1cc(C(=O)OCC(=O)Nc2ccc(F)c(F)c2)c(C)o1 | 1.76 | 9.53 µM
13 | O=C1N=C(c2ccccc2)S/C1=C\c1cccs1 | 1.2 (inactive) | 6.5 µM
14 | CCC(=O)N1CCN=C1SCc1ccc(F)cc1 | 0.75 (inactive) | 4.07 µM
15 | O=C(Nc1cccnc1)C1CC(c2ccc(Cl)c(Cl)c2)=NO1 (stereo unspecified) | 1.32 (inactive) | 7.13 µM
16 | CC(SC1=NCCS1)C(=O)Nc1nnc(-c2ccc(Br)cc2)s1 (stereo unspecified) | 0.97 (inactive) | 5.24 µM
17 | N#CCSc1n[nH]c2nc3c(c(=O)n12)C1(CCCC1)Cc1ccccc1-3 | 0.46 (inactive) | 2.49 µM
18 | O=C1CC(N2CCCN(C3CC(=O)N(c4ccc(F)cc4)C3=O)CC2)C(=O)N1c1ccc(F)cc1 (stereo unspecified) | 1.17 (inactive) | 6.34 µM
19 | Cc1nc(NC(=S)NC(=O)c2cccs2)sc1C(=O)N(C)C | 1.04 (inactive) | 5.59 µM

Row | Structure (SMILES) | fold increase in Dox EC50 | EC50
20 | O=C(CC(NC(=O)C(F)(F)F)c1ccccc1)Nc1nnc(CCc2ccccc2)s1 (stereo unspecified) | 1.85 | 9.97 µM
21 | O=C(NCc1ccc(F)cc1)C(=O)NCC1OCCN1C(=O)c1cccs1 (stereo unspecified) | 1.24 (inactive) | 6.68 µM
22 | COc1cc(SC)ccc1C(=O)NCCOc1ccc(Cl)cc1 | 1.36 (inactive) | 7.36 µM
23 | CSC1=NCCN1C(=O)Cc1ccc(Cl)cc1 | 1.04 (inactive) | 5.6 µM
24 | COc1cccc(-c2csc(NC(=O)C3CC3)n2)c1 | 0.84 (inactive) | 4.55 µM
25 | CC1CCc2c(sc3nc(CSc4ncn[nH]4)[nH]c(=O)c23)C1 (stereo unspecified) | 0.81 (inactive) | 4.4 µM
26 | Oc1c(C(c2cccs2)N2CCN(c3ccccc3)CC2)sc2ncnn12 (stereo unspecified) | 0.93 (inactive) | 5.02 µM
27 | Cc1cc(/C=C2\NC(=O)N(Cc3ccc(Cl)cc3)C2=O)c(C)n1C | 1.1 (inactive) | 5.93 µM
28 | COc1ccc(Nc2nnc(Cc3ccc(Cl)cc3)c(=O)[nH]2)c(OC)c1 | 0.91 (inactive) | 4.93 µM
29 | CC(C(=O)N1c2ccccc2CCc2ccccc21)n1nnc(-c2ccc(N(C)C)cc2)n1 (stereo unspecified) | 1.06 (inactive) | 5.7 µM
30 | O=C(CSc1nccn1-c1cccc(Cl)c1)Nc1ccc2c(c1)OCCO2 | 1.22 (inactive) | 6.58 µM
31 | CCOC(=O)C(C(=O)Nc1nc2ccccc2s1)C1CCCCC1 (stereo unspecified) | 1 (inactive) | 5.39 µM
32 | CCc1nnc(NC(=O)c2ccc(S(=O)(=O)N3CCCCCC3)cc2)s1 | 0.9 (inactive) | 4.88 µM
33 | N#Cc1nc(COc2ccccc2)oc1N1CCCC1 | 0.77 (inactive) | 4.13 µM
34 | Cc1c(C(=O)OC(C)C)sc(N)c1C(=O)OC(C)C | 0.94 (inactive) | 5.08 µM
35 | Clc1ccc(OCc2nnnn2-c2ccccc2)cc1 | 0.96 (inactive) | 5.21 µM
36 | N/C(Cc1cccs1)=N\OC(=O)COc1ccc(Br)cc1 | 1.01 (inactive) | 5.44 µM
37 | Cc1cccc(-n2c(N)cc(=O)nc2SCC(=O)Nc2nnc(C)s2)c1 | 1.54 | 8.29 µM
38 | CCc1nnc(NC(=O)C2CCCN2S(=O)(=O)c2ccccc2)s1 (stereo unspecified) | 1.46 (inactive) | 7.89 µM
